For 14 molecules, TGI and GI50 results are on record in PubChem BioAssay (NCI).

Some test systems named below: SNB-75 CNS; SK-MEL-2 melanoma; A549 NSCLC; OVCAR-8 ovarian; T-47D breast; MDA-MB-435; MDA-MB-231 breast; 786-0 renal; NCI-H226 lung; RPMI-8226 leukemia; MDA-N.
Common to all, as to assay: NCI-60 cell line screen, 48 h

“And” between values parts separate entries of the source, which are not always exact repeats. Identical values can stand only once.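 Assay format: 96-well plates, 48-hour exposure. GI50: concentration for 50% inhibition of growth. At the TGI there is no net growth.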 A value given as a limit tells only on which side of the number the result lay.

Consider `CCOC(=O)C(C)OC(=O)c1ccc(C)cc1` (stereo not drawn), for which the TGI with SNB-75 CNS, in the experiment with SK-MEL-2 melanoma, in the experiment with A549 NSCLC and in the experiment with OVCAR-8 ovarian was over 100 µM in each case.
For the molecule `CC(C)(C)OC(=O)N1C[C@H](CC(=O)OCc2ccccc2)C[C@H]1C(=O)OCC(Cl)(Cl)Cl`, the TGI in the experiment on T-47D breast was over 50 µM; in the experiment with MDA-MB-435, over 50 µM; in the experiment on SNB-75 CNS, over 50 µM; in the experiment on SK-MEL-2 melanoma it was 23 µM; in the experiment with MDA-MB-231 breast, over 50 µM; in the experiment with A549 NSCLC, over 50 µM. Besides, the TGI was over 50 µM with 786-0 renal, 29.1 µM with NCI-H226 lung and over 50 µM in the experiment on OVCAR-8 ovarian.
As for `O=CC(O)C(O)C(O)COc1cc(CO)cc2c1C(=O)c1ccccc1C2=O` (stereo not drawn), the TGI in the experiment with RPMI-8226 leukemia, in the experiment with SNB-75 CNS, in the experiment on SK-MEL-2 melanoma, in the experiment on A549 NSCLC, in the experiment with 786-0 renal and in the experiment on NCI-H226 lung was over 100 µM each time. In the experiment with OVCAR-8 ovarian, this molecule registered a TGI of over 100 µM.
In the case of `COc1ccc(Cc2nc3cc(Cl)ccc3o2)cc1`, the TGI in the experiment with RPMI-8226 leukemia is 83.9 µM; in the experiment on MDA-N it was over 100 µM; in the experiment with T-47D breast, 91.1 µM; in the experiment on MDA-MB-435, 69 µM; in the experiment on SNB-75 CNS it was 59.1 µM; in the experiment with SK-MEL-2 melanoma, 63.8 µM. In addition, the TGI in the experiment with MDA-MB-231 breast, in the experiment on A549 NSCLC, with 786-0 renal, in the experiment on NCI-H226 lung and in the experiment with OVCAR-8 ovarian was over 100 µM in each case.
For the molecule `CC(C)(C)c1ccc(O)c(Br)c1`, the TGI with RPMI-8226 leukemia, with MDA-N, with T-47D breast, in the experiment on MDA-MB-435, with SNB-75 CNS and with SK-MEL-2 melanoma was over 100 µM throughout. Besides, the TGI in the experiment on MDA-MB-231 breast, with A549 NSCLC, with 786-0 renal, in the experiment on NCI-H226 lung and in the experiment with OVCAR-8 ovarian was over 100 µM in each case.
As to `NCCCCN`, the TGI was over 100 µM in the experiment on T-47D breast; 31.4 µM in the experiment on MDA-MB-435; over 100 µM in the experiment with SNB-75 CNS; over 100 µM in the experiment on SK-MEL-2 melanoma; over 100 µM with MDA-MB-231 breast; over 100 µM in the experiment with A549 NSCLC. In addition, the TGI in the experiment on 786-0 renal, with NCI-H226 lung and with OVCAR-8 ovarian was over 100 µM each time.
Take `C/C(=C\CNc1ncnc2nc(Cl)[nH]c12)CO`: the TGI in the experiment on RPMI-8226 leukemia, in the experiment on MDA-N, in the experiment on T-47D breast, in the experiment on MDA-MB-435, in the experiment on SNB-75 CNS and in the experiment on MDA-MB-231 breast was over 100 µM each time. The TGI with A549 NSCLC, with 786-0 renal, in the experiment on NCI-H226 lung and with OVCAR-8 ovarian was over 100 µM throughout.
As for `C=C1CCCC(C)(C)[C@@H]1CC/C(C)=C/Cn1c2cccc(=O)c-2nc2ccccc21`, the GI50 was 3.06 µM with RPMI-8226 leukemia; 2.09 µM with SNB-75 CNS; 6.62 µM in the experiment on SK-MEL-2 melanoma; 20.9 µM with A549 NSCLC; 21.2 µM in the experiment with NCI-H226 lung; 4.28 µM in the experiment on OVCAR-8 ovarian. The TGI in the experiment on RPMI-8226 leukemia was 9.68 µM and 17.8 µM; with SNB-75 CNS, 4.54 µM and 5.04 µM; in the experiment on NCI-H226 lung, > 100 µM and 21.6 µM.
Consider `C[C@H](Nc1ccc(C#N)n(C)c1=O)c1cc2cc(Cl)ccc2[nH]c1=O`, for which the GI50 with RPMI-8226 leukemia is 14.2 µM; in the experiment on T-47D breast, 17.3 µM; in the experiment on MDA-MB-435 it was 28.6 µM; in the experiment on SNB-75 CNS, 4.67 µM; with SK-MEL-2 melanoma, 26.7 µM; in the experiment with MDA-MB-231 breast, 23.2 µM. In addition, the GI50 is 24.3 µM in the experiment with A549 NSCLC, 23.4 µM with NCI-H226 lung and 33.2 µM in the experiment with OVCAR-8 ovarian. The TGI in the experiment with RPMI-8226 leukemia came out at 49.3 µM; with T-47D breast it was 94.4 µM; in the experiment on MDA-MB-435, 88.7 µM; with SNB-75 CNS it was 55.4 µM; in the experiment on SK-MEL-2 melanoma it was 94 µM; in the experiment with MDA-MB-231 breast it was 98.4 µM. Further, the TGI in the experiment on A549 NSCLC, in the experiment with NCI-H226 lung and with OVCAR-8 ovarian was over 100 µM throughout.
Consider `NC(N)=NS(=O)(=O)c1ccc(Nc2c3ccccc3nc3c(C(=O)N4CCN(CCO)CC4)ccc(Cl)c23)cc1`, for which the TGI in the experiment on RPMI-8226 leukemia, in the experiment with SNB-75 CNS, in the experiment on SK-MEL-2 melanoma, in the experiment on A549 NSCLC, in the experiment on NCI-H226 lung and in the experiment with OVCAR-8 ovarian was over 100 µM throughout.
On to `Clc1ccc(NCc2nnc(COc3ccc(OCc4nnc(CNc5ccc(Cl)cc5)o4)c(Cl)c3)o2)cc1`, for which the TGI in the experiment with RPMI-8226 leukemia was 36.9 µM; in the experiment with MDA-N, over 100 µM; in the experiment on T-47D breast it was over 100 µM; with MDA-MB-435, over 100 µM; in the experiment on SK-MEL-2 melanoma, over 100 µM; with MDA-MB-231 breast, 63.3 µM. Moreover, the TGI in the experiment on A549 NSCLC, in the experiment on 786-0 renal, in the experiment with NCI-H226 lung and with OVCAR-8 ovarian was over 100 µM each time.
Turning to `O=P(O)(O)OP(=O)(O)O`, the TGI in the experiment on RPMI-8226 leukemia, in the experiment with MDA-N, in the experiment with T-47D breast, with MDA-MB-435, with SNB-75 CNS and in the experiment with SK-MEL-2 melanoma was over 100 µM throughout. Also, the TGI with MDA-MB-231 breast, in the experiment with A549 NSCLC, with 786-0 renal and in the experiment on OVCAR-8 ovarian was over 100 µM each time.
Consider `CCN(CC)/[N+]([O-])=N/OC`, for which the TGI with SK-MEL-2 melanoma, in the experiment with A549 NSCLC, with NCI-H226 lung and in the experiment with OVCAR-8 ovarian was over 100 µM in each case.
Regarding `CC(Br)C(=O)c1ccc2cc(Br)c3ccccc3c2c1` (stereo not drawn), the TGI in the experiment on RPMI-8226 leukemia is 21.2 µM; in the experiment with MDA-N it was 27 µM; in the experiment on T-47D breast it was 30.5 µM; in the experiment on MDA-MB-435, 29.9 µM; with SNB-75 CNS, 29 µM; in the experiment on SK-MEL-2 melanoma, 26.5 µM. Moreover, the TGI in the experiment with MDA-MB-231 breast came to 30.2 µM; in the experiment on A549 NSCLC, 39.1 µM; with 786-0 renal, 11.7 µM; in the experiment with OVCAR-8 ovarian, 27.5 µM.
